# Assay results: PubChem BioAssay (NCI)
#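 A five-concentration, 48-hour dose response in 96-well plates underlies each endpoint, interpolated linearly between surrounding concentrations. The concentration for 50% growth inhibition is given as GI50. TGI: concentration producing complete growth inhibition.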
# Assays:
# Test in all cases: DTP human tumour cell line panel, 48 h
# HCT-15 colon = system: HCT-15 colon
# OVCAR-8 ovarian = system: OVCAR-8 ovarian
# MDA-MB-435 = system: MDA-MB-435
# SF-539 CNS = system: SF-539 CNS
# UACC-257 melanoma = system: UACC-257 melanoma
# BT-549 breast = system: BT-549 breast
# K-562 leukemia = system: K-562 leukemia
# NCI/ADR-RES ovarian = system: NCI/ADR-RES ovarian
# SK-MEL-2 melanoma = system: SK-MEL-2 melanoma
# A498 renal = system: A498 renal
# SNB-19 CNS = system: SNB-19 CNS
# RXF 393 renal = system: RXF 393 renal
# NCI-H522 lung = system: NCI-H522 lung
# EKVX NSCLC = system: EKVX NSCLC
# MALME-3M melanoma = system: MALME-3M melanoma
# A549 NSCLC = system: A549 NSCLC
# OVCAR-4 ovarian = system: OVCAR-4 ovarian
# SR leukemia = system: SR leukemia
# SK-OV-3 ovarian = system: SK-OV-3 ovarian
# HCT-116 colon = system: HCT-116 colon
# CAKI-1 renal = system: CAKI-1 renal
# SF-295 CNS = system: SF-295 CNS
# HOP-62 NSCLC = system: HOP-62 NSCLC
# HL-60(TB) leukemia = system: HL-60(TB) leukemia
# RPMI-8226 leukemia = system: RPMI-8226 leukemia
# UO-31 renal = system: UO-31 renal
# OVCAR-3 ovarian = system: OVCAR-3 ovarian
# SF-268 CNS = system: SF-268 CNS
# DU-145 prostate = system: DU-145 prostate
# PC-3 prostate = system: PC-3 prostate
# SN12C renal = system: SN12C renal
# KM12 colon = system: KM12 colon
# NCI-H226 lung = system: NCI-H226 lung
# TK-10 renal = system: TK-10 renal
# LOX IMVI melanoma = system: LOX IMVI melanoma
# HT29 colon = system: HT29 colon
# MOLT-4 leukemia = system: MOLT-4 leukemia
# T-47D breast = system: T-47D breast
# NCI-H23 lung = system: NCI-H23 lung
# SK-MEL-5 melanoma = system: SK-MEL-5 melanoma
# HCC-2998 colon = system: HCC-2998 colon
# IGROV1 ovarian = system: IGROV1 ovarian
# NCI-H460 lung = system: NCI-H460 lung
# SNB-75 CNS = system: SNB-75 CNS
# SK-MEL-28 melanoma = system: SK-MEL-28 melanoma
# OVCAR-5 ovarian = system: OVCAR-5 ovarian
# SW-620 colon = system: SW-620 colon
# 786-0 renal = system: 786-0 renal
# UACC-62 melanoma = system: UACC-62 melanoma
# MDA-MB-231 breast = system: MDA-MB-231 breast
# HOP-92 NSCLC = system: HOP-92 NSCLC
# HS 578T breast = system: HS 578T breast
# ACHN renal = system: ACHN renal
# CCRF-CEM leukemia = system: CCRF-CEM leukemia
# U251 CNS = system: U251 CNS
# MCF7 breast = system: MCF7 breast
smiles,measurement,setting,value
Cl.[Pt].[c-]1ccccc1-c1ccccn1.c1ccc(P(c2ccccc2)C([PH+](c2ccccc2)c2ccccc2)[PH+](c2ccccc2)c2ccccc2)cc1,GI50,HCT-15 colon,2.81 µM
same,TGI,HCT-15 colon,> 100 µM
same,GI50,OVCAR-8 ovarian,0.853 µM
same,TGI,OVCAR-8 ovarian,> 100 µM
same,GI50,MDA-MB-435,2.45 µM
same,TGI,MDA-MB-435,6.65 µM
same,GI50,SF-539 CNS,1.54 µM
same,TGI,SF-539 CNS,5.6 µM
same,GI50,UACC-257 melanoma,3.26 µM
same,TGI,UACC-257 melanoma,38 µM
same,GI50,BT-549 breast,2.09 µM
same,TGI,BT-549 breast,6.82 µM
same,GI50,K-562 leukemia,0.658 µM
same,TGI,K-562 leukemia,13.6 µM
same,GI50,NCI/ADR-RES ovarian,5.21 µM
same,TGI,NCI/ADR-RES ovarian,76.5 µM
same,GI50,SK-MEL-2 melanoma,2.09 µM
same,TGI,SK-MEL-2 melanoma,5.92 µM
same,GI50,A498 renal,1.85 µM
same,TGI,A498 renal,5.89 µM
same,GI50,SNB-19 CNS,0.764 µM
same,TGI,SNB-19 CNS,21.2 µM
same,GI50,RXF 393 renal,1.48 µM
same,TGI,RXF 393 renal,4.01 µM
same,GI50,NCI-H522 lung,1.57 µM
same,TGI,NCI-H522 lung,7.14 µM
same,GI50,EKVX NSCLC,2.3 µM
same,TGI,EKVX NSCLC,62.2 µM
same,GI50,MALME-3M melanoma,0.42 µM
same,TGI,MALME-3M melanoma,2.65 µM
same,GI50,A549 NSCLC,1.32 µM
same,TGI,A549 NSCLC,15.1 µM
same,GI50,OVCAR-4 ovarian,0.662 µM
same,TGI,OVCAR-4 ovarian,8.63 µM
same,GI50,SR leukemia,1.21 µM
same,TGI,SR leukemia,28.6 µM
same,GI50,SK-OV-3 ovarian,3.57 µM
same,TGI,SK-OV-3 ovarian,> 100 µM
same,GI50,HCT-116 colon,1.58 µM
same,TGI,HCT-116 colon,7.11 µM
same,GI50,CAKI-1 renal,1.81 µM
same,TGI,CAKI-1 renal,13.1 µM
same,GI50,SF-295 CNS,2.48 µM
same,TGI,SF-295 CNS,12.4 µM
same,GI50,HOP-62 NSCLC,2.39 µM
same,TGI,HOP-62 NSCLC,9 µM
same,GI50,HL-60(TB) leukemia,1.1 µM
same,TGI,HL-60(TB) leukemia,5.32 µM
same,GI50,RPMI-8226 leukemia,0.525 µM
same,TGI,RPMI-8226 leukemia,3.66 µM
same,GI50,UO-31 renal,1.8 µM
same,TGI,UO-31 renal,6.28 µM
same,GI50,OVCAR-3 ovarian,1.59 µM
same,TGI,OVCAR-3 ovarian,7.99 µM
same,GI50,SF-268 CNS,2.59 µM
same,TGI,SF-268 CNS,20.9 µM
same,GI50,DU-145 prostate,1.9 µM
same,TGI,DU-145 prostate,16.4 µM
same,GI50,PC-3 prostate,0.683 µM
same,TGI,PC-3 prostate,15.3 µM
same,GI50,SN12C renal,0.942 µM
same,TGI,SN12C renal,7.03 µM
same,GI50,KM12 colon,2.48 µM
same,TGI,KM12 colon,7.22 µM
same,GI50,NCI-H226 lung,1.88 µM
same,TGI,NCI-H226 lung,9.81 µM
same,GI50,TK-10 renal,1.74 µM
same,TGI,TK-10 renal,15.5 µM
same,GI50,LOX IMVI melanoma,1.65 µM
same,TGI,LOX IMVI melanoma,4.6 µM
same,GI50,HT29 colon,2.3 µM
same,TGI,HT29 colon,8.13 µM
same,GI50,MOLT-4 leukemia,2.13 µM
same,TGI,MOLT-4 leukemia,11.6 µM
same,GI50,T-47D breast,0.916 µM
same,TGI,T-47D breast,19.5 µM
same,GI50,NCI-H23 lung,1.19 µM
same,TGI,NCI-H23 lung,18.4 µM
same,GI50,SK-MEL-5 melanoma,1.25 µM
same,TGI,SK-MEL-5 melanoma,2.8 µM
same,GI50,HCC-2998 colon,3.64 µM
same,TGI,HCC-2998 colon,18.6 µM
same,GI50,IGROV1 ovarian,2.18 µM
same,TGI,IGROV1 ovarian,> 100 µM
same,GI50,NCI-H460 lung,2.29 µM
same,TGI,NCI-H460 lung,10 µM
same,GI50,SNB-75 CNS,1.64 µM
same,TGI,SNB-75 CNS,23.5 µM
same,GI50,SK-MEL-28 melanoma,2.64 µM
same,TGI,SK-MEL-28 melanoma,9.7 µM
same,GI50,OVCAR-5 ovarian,2.9 µM
same,TGI,OVCAR-5 ovarian,23.9 µM
same,GI50,SW-620 colon,2.32 µM
same,TGI,SW-620 colon,8.31 µM
same,GI50,786-0 renal,3.2 µM
same,TGI,786-0 renal,14.4 µM
same,GI50,UACC-62 melanoma,1.7 µM
same,TGI,UACC-62 melanoma,4.75 µM
same,GI50,MDA-MB-231 breast,1.93 µM
same,TGI,MDA-MB-231 breast,5.24 µM
same,GI50,HOP-92 NSCLC,1.41 µM
same,TGI,HOP-92 NSCLC,5.18 µM
same,GI50,HS 578T breast,2.22 µM
same,TGI,HS 578T breast,20.8 µM
same,GI50,ACHN renal,1.84 µM
same,TGI,ACHN renal,11.5 µM
same,GI50,CCRF-CEM leukemia,2.4 µM
same,TGI,CCRF-CEM leukemia,> 100 µM
same,GI50,U251 CNS,0.577 µM
same,TGI,U251 CNS,2.69 µM
same,GI50,MCF7 breast,1.52 µM
same,TGI,MCF7 breast,47 µM
